Earlier results on two substances are cited in patent US20030113270A1, “Vasoactive intestinal peptides for glaucomatous retinopathy” (priority 2001, published 2003).

Where no end group is shown, it is not given here.

The test system of the data set is neuronal survival.

Stearyl-norleucine^17-VIP [SNV]: the “potency in promoting neuronal survival relative to VIP” value (more potent than VIP) was 100 fold.
For the substance “vasoactive intestinal polypeptide (HSDAVFTDNYTRLRKQMAVKKYLNSILN; ends and bridges not checked; UniProt P01282 125-152, looked up) [VIP, 28 amino acid neuropeptide]”, the neuroprotection result (Alzheimer's disease-relevant models) is reported as “provide neuroprotection”.
